Like-named read-outs stand apart in the source and are kept apart here.
Columns and labels:
Experiment in all cases: MIC, broth microdilution (CLSI), substance alone or ATB combined with compound at 4 or 8 μg/mL
SAU 29213 = type: cell-based, S. aureus; conditions: SAU 29213
Method in brief: (§1)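 Each strain received 5·10^5 CFU/mL of log-phase cells in ca-MHB over DMSO-spotted compound or compound-antibiotic combinations. After 16-20 h at 35° C, growth was scored visually.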

ECL P99 = type: cell-based, E. cloacae; conditions: for MIC: Enterobacter cloacae
Method in brief: as §1

ECO 190317 = type: cell-based, E. coli; conditions: for MIC: Escherichia coli
Method in brief: as §1

ECO UFR39 = type: cell-based, E. coli; conditions: for MIC: Escherichia coli
Method in brief: as §1

SPN 49619 = type: cell-based, S. pneumoniae; conditions: SPN 49619
Method in brief: as §1

PAE UFR48 = type: cell-based, P. aeruginosa; conditions: PAE UFR48
Method in brief: as §1

For `C=CC1=C(C(=O)O)N2C(=O)[C@@H](NC(=O)/C(=N\OCC(=O)O)c3csc(N)n3)[C@H]2SC1` [FIX, Cefixime, reference compound], the “MIC ATB combined with Example 1 @8 μg/ml” value (SAU 29213; with Example 1 @8 μg/ml) was 16 µg/mL, the “MIC ATB combined with Example 1 @8 μg/ml” value (SAU 29213; with Example 1 at 8 μg/ml) was 16 µg/mL and the “MIC ATB combined with Example 7 @8 μgml” value (SAU 29213; with Example 7 at 8 μg/ml) was 8 µg/mL. The “MIC ATB combined with Example 9 @4 μg/ml” value (SAU 29213; with Example 9 @4 μg/ml) was “<=0.031 μg/mL”, the “MIC ATB combined with Example 9 @4 μg/ml” value (SAU 29213; with Example 9 at 4 μg/ml) was “<=0.031 μg/mL” and the “MIC ATB combined with Example 11 @8 μg/ml” value (SAU 29213; with Example 11 at 8 μg/ml) was 0.125 µg/mL. The “MIC ATB combined with Example 12 @8 μg/ml” value (SAU 29213; with Example 12 at 8 μg/ml) was <0.031 µg/mL, the “MIC ATB combined with Example 13 @8 μg/ml” value (SAU 29213; with Example 13 at 8 μg/ml) was 4 µg/mL and the “MIC ATB combined with Example 14 @8 μg/ml” value (SAU 29213; with Example 14 at 8 μg/ml) was <0.031 µg/mL. For the same molecule, the “MIC ATB combined with Example 15 @4 μgml” value (SAU 29213; with Example 15 at 4 μg/ml) was <0.031 µg/mL, the “MIC ATB combined with Example 16 @4 μg/ml” value (SAU 29213; with Example 16 at 4 μg/ml) was <0.031 µg/mL and the MIC (SAU 29213; Staphylococcus aureus, antibiotic alone, read-out: MIC ATB alone) was 16 µg/mL. The “MIC ATB combined with Example 1 @8 μg/ml” value (ECL P99; ECL P99, with Example 1 @8 μg/ml) was 0.063 µg/mL, the “MIC ATB combined with Example 1 @8 μg/ml” value (ECL P99; ECL P99, with Example 1 at 8 μg/ml) was 0.063 µg/mL and the “MIC ATB combined with Example 7 @8 μgml” value (ECL P99; ECL P99, with Example 7 at 8 μg/ml) was 16 µg/mL. For the same molecule, the “MIC ATB combined with Example 9 @4 μg/ml” value (ECL P99; ECL P99, with Example 9 @4 μg/ml) was <0.031 µg/mL, the “MIC ATB combined with Example 9 @4 μg/ml” value (ECL P99; ECL P99, with Example 9 at 4 μg/ml) was <0.031 µg/mL and the “MIC ATB combined with Example 11 @8 μg/ml” value (ECL P99; ECL P99, with Example 11 at 8 μg/ml) was <0.031 µg/mL. For the same molecule, the “MIC ATB combined with Example 12 @8 μg/ml” value (ECL P99; ECL P99, with Example 12 at 8 μg/ml) was <0.031 µg/mL, the “MIC ATB combined with Example 13 @8 μg/ml” value (ECL P99; ECL P99, with Example 13 at 8 μg/ml) was 8 µg/mL and the “MIC ATB combined with Example 14 @8 μg/ml” value (ECL P99; ECL P99, with Example 14 at 8 μg/ml) was <0.031 µg/mL. The “MIC ATB combined with Example 15 @4 μgml” value (ECL P99; ECL P99, with Example 15 at 4 μg/ml) was <0.031 µg/mL, the “MIC ATB combined with Example 16 @4 μg/ml” value (ECL P99; ECL P99, with Example 16 at 4 μg/ml) was <0.031 µg/mL and the MIC (ECL P99) was > 128 µg/mL. The MIC (ECL P99; ECL P99, antibiotic alone, read-out: MIC ATB alone) was > 512 µg/mL, the “MIC ATB combined with Example 1 @8 μg/ml” value (ECO 190317; ECO 190317, with Example 1 @8 μg/ml) was <0.031 µg/mL and the “MIC ATB combined with Example 1 @8 μg/ml” value (ECO 190317; ECO 190317, with Example 1 at 8 μg/ml) was <0.031 µg/mL. The “MIC ATB combined with Example 7 @8 μgml” value (ECO 190317; ECO 190317, with Example 7 at 8 μg/ml) was <0.031 µg/mL, the “MIC ATB combined with Example 9 @4 μg/ml” value (ECO 190317; ECO 190317, with Example 9 @4 μg/ml) was <0.031 µg/mL and the “MIC ATB combined with Example 9 @4 μg/ml” value (ECO 190317; ECO 190317, with Example 9 at 4 μg/ml) was <0.031 µg/mL. The “MIC ATB combined with Example 11 @8 μg/ml” value (ECO 190317; ECO 190317, with Example 11 at 8 μg/ml) was <0.031 µg/mL, the “MIC ATB combined with Example 12 @8 μg/ml” value (ECO 190317; ECO 190317, with Example 12 at 8 μg/ml) was <0.031 µg/mL and the “MIC ATB combined with Example 13 @8 μg/ml” value (ECO 190317; ECO 190317, with Example 13 at 8 μg/ml) was <0.031 µg/mL. The “MIC ATB combined with Example 14 @8 μg/ml” value (ECO 190317; ECO 190317, with Example 14 at 8 μg/ml) was <0.031 µg/mL, the “MIC ATB combined with Example 15 @4 μgml” value (ECO 190317; ECO 190317, with Example 15 at 4 μg/ml) was <0.031 µg/mL and the “MIC ATB combined with Example 16 @4 μg/ml” value (ECO 190317; ECO 190317, with Example 16 at 4 μg/ml) was <0.031 µg/mL. For the same molecule, the MIC (ECO 190317) was > 128 µg/mL, the MIC (ECO 190317; ECO 190317, antibiotic alone, read-out: MIC ATB alone) was 256 µg/mL and the “MIC ATB combined with Example 1 @8 μg/ml” value (ECO UFR39; ECO UFR39, with Example 1 @8 μg/ml) was >32 µg/mL. For the same molecule, the “MIC ATB combined with Example 1 @8 μg/ml” value (ECO UFR39; ECO UFR39, with Example 1 at 8 μg/ml) was >32 µg/mL, the “MIC ATB combined with Example 7 @8 μgml” value (ECO UFR39; ECO UFR39, with Example 7 at 8 μg/ml) was <0.031 µg/mL and the “MIC ATB combined with Example 9 @4 μg/ml” value (ECO UFR39; ECO UFR39, with Example 9 @4 μg/ml) was <0.031 µg/mL. The “MIC ATB combined with Example 9 @4 μg/ml” value (ECO UFR39; ECO UFR39, with Example 9 at 4 μg/ml) was <0.031 µg/mL, the “MIC ATB combined with Example 11 @8 μg/ml” value (ECO UFR39; ECO UFR39, with Example 11 at 8 μg/ml) was <0.031 µg/mL and the “MIC ATB combined with Example 12 @8 μg/ml” value (ECO UFR39; ECO UFR39, with Example 12 at 8 μg/ml) was <0.031 µg/mL. The “MIC ATB combined with Example 13 @8 μg/ml” value (ECO UFR39; ECO UFR39, with Example 13 at 8 μg/ml) was <0.031 µg/mL, the “MIC ATB combined with Example 14 @8 μg/ml” value (ECO UFR39; ECO UFR39, with Example 14 at 8 μg/ml) was <0.031 µg/mL and the “MIC ATB combined with Example 15 @4 μgml” value (ECO UFR39; ECO UFR39, with Example 15 at 4 μg/ml) was <0.031 µg/mL. For the same molecule, the “MIC ATB combined with Example 16 @4 μg/ml” value (ECO UFR39; ECO UFR39, with Example 16 at 4 μg/ml) was <0.031 µg/mL, the MIC (ECO UFR39) was > 128 µg/mL and the MIC (ECO UFR39; ECO UFR39, antibiotic alone, read-out: MIC ATB alone) was > 512 µg/mL. For the same molecule, the “MIC ATB combined with Example 1 @8 μg/ml” value (SPN 49619; with Example 1 @8 μg/ml) was 1 µg/mL, the “MIC ATB combined with Example 1 @8 μg/ml” value (SPN 49619; with Example 1 at 8 μg/ml) was 1 µg/mL and the “MIC ATB combined with Example 7 @8 μgml” value (SPN 49619; with Example 7 at 8 μg/ml) was 1 µg/mL. The “MIC ATB combined with Example 9 @4 μg/ml” value (SPN 49619; with Example 9 @4 μg/ml) was 0.25 µg/mL, the “MIC ATB combined with Example 9 @4 μg/ml” value (SPN 49619; with Example 9 at 4 μg/ml) was 0.25 µg/mL and the “MIC ATB combined with Example 11 @8 μg/ml” value (SPN 49619; with Example 11 at 8 μg/ml) was 0.25 µg/mL. For the same molecule, the “MIC ATB combined with Example 12 @8 μg/ml” value (SPN 49619; with Example 12 at 8 μg/ml) was <0.031 µg/mL, the “MIC ATB combined with Example 13 @8 μg/ml” value (SPN 49619; with Example 13 at 8 μg/ml) was 0.5 µg/mL and the “MIC ATB combined with Example 14 @8 μg/ml” value (SPN 49619; with Example 14 at 8 μg/ml) was <0.031 µg/mL. For the same molecule, the “MIC ATB combined with Example 15 @4 μgml” value (SPN 49619; with Example 15 at 4 μg/ml) was 0.25 µg/mL, the “MIC ATB combined with Example 16 @4 μg/ml” value (SPN 49619; with Example 16 at 4 μg/ml) was <0.031 µg/mL and the MIC (SPN 49619; Streptococcus pneumoniae, antibiotic alone, read-out: MIC ATB alone) was 1 µg/mL. The “MIC ATB combined with Example 1 @8 μg/ml” value (PAE UFR48; with Example 1 @8 μg/ml) was <0.031 µg/mL, the “MIC ATB combined with Example 1 @8 μg/ml” value (PAE UFR48; with Example 1 at 8 μg/ml) was <0.031 µg/mL and the “MIC ATB combined with Example 7 @8 μgml” value (PAE UFR48; with Example 7 at 8 μg/ml) was >32 µg/mL. The “MIC ATB combined with Example 9 @4 μg/ml” value (PAE UFR48; with Example 9 @4 μg/ml) was >32 µg/mL, the “MIC ATB combined with Example 9 @4 μg/ml” value (PAE UFR48; with Example 9 at 4 μg/ml) was >32 µg/mL and the “MIC ATB combined with Example 11 @8 μg/ml” value (PAE UFR48; with Example 11 at 8 μg/ml) was >32 µg/mL.

Reference: patent publication US20200024278A1, “COMPOSITION COMPRISING ANTIBIOTIC COMPOUND AND AN HETEROCYCLIC COMPOUND AND THEIR USE IN PREVENTING OR TREATING BACTERIAL INFECTIONS” (MUTABILIS, priority 2016, published 2020)
